Molecules are shown by their SMILES. Values after ≈ are worked out from the molar mass of the structure shown. Where two headings read alike, the source gives them in different places.

The record followed here is article PMC11979885, “Mechanistic Investigation into the Phase Separation Behavior of Soluplus in the Presence of Biorelevant Media” (Molecular Pharmaceutics, 2025).

Format in all cases: physicochemical
Data set [1] is described as follows: Equilibrium solubility of crystalline RO6897779 in FaSSIF-V1 with and without Soluplus. The protocol:
The solubility of RO6897779 was determined in FaSSIF-V1 and in the presence of previously outlined Soluplus concentrations dissolved in FaSSIF-V1 to determine the apparent degree of supersaturation induced during solvent shift experiments. Samples were prepared by adding an excess amount of RO6897779 (≈5 mg) to 3 mL of the excipient solutions, or neat FaSSIF-V1 medium, and were stirred at 250 rpm at 37 °C (Mixdrive 15, 2MAG, München, Germany). Samples were equilibrated for 48 h. Solid–liquid separation was conducted by centrifugation at 11,500 g for 5 min using Ultrafree centrifugal units. The supernatant was immediately diluted with a 1:1 (v/v) mixture of acetonitrile and deionized water to fall into the linear region of the calibration curve during high-performance liquid chromatography (HPLC), as described under HPLC drug quantification below.
(§1) RO6897779 was quantified using reversed-phase HPLC. An Agilent 1200 series HPLC system (Agilent Technologies Inc., US) equipped with an Agilent Eclipse Plus C18 column (5 μm, 4.6 mm × 150 mm) was used for sample separation. Detection and quantification of RO6897779 were performed by using a variable wavelength detector set to 214 nm. The mobile phase consisted of (A) HPLC-grade deionized water and (B) and acetonitrile both containing 0.1% [v/v] formic acid. […] Data analysis was conducted using Agilent’s OpenLab CDS software Version 2.6.

Data set [2] can be described thus: Solvent shift supersaturation kinetics of RO6897779 in Soluplus solutions in FaSSIF-V1. Particulars: for apparent degree of supersaturation (aDS) induced: nominal 1 mg mL^–1 drug, FaSSIF-V1, 37 °C. As to the method: Solvent shift experiments were conducted in the Pion microDISS Profiler to assess the supersaturation kinetics of RO6897779 in the presence of Soluplus dissolved in FaSSIF-V1. […] Supersaturation kinetics were assessed at D/P ratios of 10, 20, 30, and 40% corresponding to the polymer concentrations outlined previously. The polymer was dissolved in FaSSIF-V1 at RT and subsequently heated to 37 °C. A concentrated DMSO stock solution was prepared at a concentration of 50 mg mL^–1 RO6897779. From this stock solution, an aliquot of 400 μL was spiked into 19.6 mL of preheated solvent shift medium, so that a nominal concentration of 1 mg mL^–1 RO6897779 was obtained without exceeding DMSO concentrations of 2% [v/v], while assuming a negligible residual solvent influence on solubility.[40] The solutions were stirred at 250 rpm and the temperature was maintained at 37 °C and continuously monitored. At time points of 5, 15, 30, 60, 120, 180, and 240 min, 2 × 200 μL aliquots were withdrawn. […] Subsequently, the supernatant of the media was diluted appropriately with an acetonitrile–water mixture. An intermission of 30 min was introduced as a change in Soluplus phase behavior was expected once the sample reached RT. It was assumed that this intermission would lead to a difference in the sampled concentration of RO6897779.
as §1

Data set [3] in a line: DSC glass forming ability / crystallization tendency classification. Particulars: classification according to Baird et al. As to the method: The manufactured spray-dried dispersion as well as the neat crystalline drug was investigated in triplicate using DSC to detect the presence of crystalline material and to gain information about the glass transition temperature (Tg) of the materials. For this purpose, a DSC 1 Star system instrument from Mettler-Toledo AG (Greifensee, Switzerland) was used. The instrument was calibrated for temperature and heat flow using indium, and the analysis was performed with an air flow rate of 150 mL min^–1. Samples were weighed into 40 μL aluminum pans (Mettler-Toledo AG, Greifensee, CH), sealed with pierced aluminum lids, and placed into the DSC. The analysis of the spray-dried dispersion was carried out as a heating cycle which heated the sample from RT to 190 °C at 10 K min^–1, followed by cooling down to −50 °C at −20 K min^–1 and finally reheating to 190 °C at 10 K min^–1. The analysis of the neat crystalline drug was carried out according to Baird et al.,[36] to evaluate the glass forming ability of the drug. The second heating ramp was used to measure the Tg without the influence of evaporating moisture.

Regarding `O=C(OCc1ccc(OC(F)(F)F)cc1)N1C[C@@H]2CN(C(=O)c3ccc4[nH]nnc4c3)C[C@H]2C1` [RO6897779], the solubility at 48 h came out at 22.9 µg/mL (≈ 48.2 µM) in data set [1] (FaSSIF-V1, 37 °C, fassif, thermodynamic from solid, Form I, pH = 6.5 ± 0, read-out: solubility in FaSSIF-V1); 69 µg/mL (≈ 145 µM) in data set [1] (FaSSIF-V1 with Soluplus 1.50 mg mL^–1, aqueous with cosolvent or surfactant or cyclodextrin, thermodynamic from solid, FaSSIF-V1, Soluplus 1.50 mg mL^–1 (D/P 40%), 48 h, 37 °C, read-out: solubility); 96.2 µg/mL (≈ 202 µM) in data set [1] (FaSSIF-V1 with Soluplus 2.33 mg mL^–1, aqueous with cosolvent or surfactant or cyclodextrin, thermodynamic from solid, FaSSIF-V1, Soluplus 2.33 mg mL^–1 (D/P 30%), 48 h, 37 °C, read-out: solubility); 130 µg/mL (≈ 274 µM) in data set [1] (FaSSIF-V1 with Soluplus 4.00 mg mL^–1, aqueous with cosolvent or surfactant or cyclodextrin, thermodynamic from solid, FaSSIF-V1, Soluplus 4.00 mg mL^–1 (D/P 20%), 48 h, 37 °C, read-out: solubility); 215 µg/mL (≈ 452 µM) in data set [1] (FaSSIF-V1 with Soluplus 9.00 mg mL^–1, aqueous with cosolvent or surfactant or cyclodextrin, thermodynamic from solid, FaSSIF-V1, Soluplus 9.00 mg mL^–1 (D/P 10%), 48 h, 37 °C, read-out: solubility); 22.9 µg/mL (≈ 48.2 µM) in data set [1] (pH 6.5, thermodynamic from solid, neat FaSSIF-V1, Soluplus 0.00 mg mL^–1 (D/P 100%), 48 h, 37 °C, read-out: solubility). In addition, the “apparent degree of supersaturation (aDS) induced” value was 4.65 in data set [2] (D/P 10%), 7.7 in data set [2] (D/P 20%), 10.4 in data set [2] (D/P 30%) and 14.5 in data set [2] (D/P 40%). Besides, in data set [2] (D/P 20%, FaSSIF-V1, after immediate centrifugation and after cooling to RT), the “sampled drug concentration in solvent shift experiment” value was 150–170 μg mL^–1. In addition, the crystallization tendency result in data set [3] is given as “class III”.

Broadly, the solubility is how much of the substance goes into solution per volume.
